Measured values published in patent publication US20100061928A1, “LABELLED ANALOGUES OF HALOBENZAMIDES AS RADIOPHARMACEUTICALS” (Institut National De La Sante et De La Recherche Medicale …, priority 2006, published 2010).
Where a name gives a salt, the structure may show the parent alone.

What was measured:
[1] = system: human melanoma (M4Beu); assay: Cytotoxicity, Hoechst test, M4Beu; settings: read-out: IC50 M4Beu; M4Beu human melanoma, 48 hours incubation, Hoechst test
[2] = Elimination of the molecules: cumulative urinary and faecal excretion 0-72 hours; format: in vivo, mouse
[3] = system: tumour; assay: Dosimetry with regard to the tumour (MIRD programme, extrapolated to ^131I)
[4] = system: human fibroblast cell lines; assay: Cytotoxicity, Hoechst test, human fibroblasts; settings: Homo sapiens, Fibroblast, 48 h, read-out: IC50 Fibroblast
[5] = system: murine melanoma (B16 F0); assay: Cytotoxicity, Hoechst test, B16 F0
[6] = system: grafted B16 F0 murine melanoma tumour; assay: Biodistribution of the ^125I-labelled molecules in the melanoma-bearing mouse (autoradiography of whole-body sections); settings: for Biodistribution, radioactivity concentration in B 16, Mean: B 16 tumour
[7] = system: B16 F0 murine melanoma cells; assay: Colony forming technique: chemotherapeutic and radiotherapeutic (^125I) effects in vitro; format: cell-based
Procedure: The colony forming technique is involved, that is to say the growth of colonies of clones starting from tumour cells (B16 F0 murine melanoma cells) inoculated at a low concentration. This method makes it possible to visualize the cytotoxic and cytostatic properties of the compounds studied. The study was carried out in three parts:
The experiment is carried out on 6-well plates where 200 cells are inoculated in 2 ml of DMEM medium. After 20 hours, the medium is withdrawn and replaced with 2 ml of medium comprising the labelled compound at the desired concentration. This study is carried out in comparison with control wells comprising DMEM medium alone. […] The plates are incubated for 8 days and then the medium is withdrawn. The wells are rinsed with PBS and methanol is added for 3 minutes. Once attached, the cells are coloured with crystal violet with a contact time of 3 minutes. Subsequently, the colonies comprising more than 50 cells are counted using a dedicated counter. The growth of the treated colonies of cells is quantified in comparison with the controls. The activity of the product is expressed by a percentage of inhibition:
100−[(number of treated colonies)/(number of control colonies)]×100

[8] = 1 H after i.v., 125I-labelled, dose = 2.1 MBq
[9] = 3 H after i.v., 125I-labelled, dose = 2.1 MBq
[10] = 6 H after i.v., 125I-labelled, dose = 2.1 MBq
[11] = 24 H after i.v., 125I-labelled, dose = 2.1 MBq
[12] = 72 H after i.v., 125I-labelled, dose = 2.1 MBq

Faecal elimination 0-72 hours (Faeces) ([2]; cumulative excretion 0-72 hours, faeces, mice in metabolic cages): 61% | Urinary and faecal elimination 0-72 hours (Total) ([2]; cumulative excretion 0-72 hours, urine + faeces): 66.8% | Urinary elimination 0-72 hours (Urine) ([2]; cumulative excretion 0-72 hours, urine, mice in metabolic cages): 5.8% | elimination route (in words) ([2]; urinary versus faecal, 0-72 hours): faecal route predominates | Effective period ([3]; extrapolated to 131I labelling): 30.0 h | Biological period ([3]; from biodistribution data): 35.5 hours | Biodistribution, radioactivity concentration in B 16, Mean [6, 8]: 20.96 % ID/g | Biodistribution, radioactivity concentration in B 16, Mean [6, 9]: 23.65 % ID/g | Biodistribution, radioactivity concentration in B 16, Mean [6, 10]: 27.70 % ID/g | Biodistribution, radioactivity concentration in B 16, Mean [6, 11]: 11.47 % ID/g | Biodistribution, radioactivity concentration in B 16, Mean [6, 12]: 6.26 % ID/g | Biodistribution, radioactivity concentration in GB, Mean ([6]; GB, 3 H after i.v., 125I-labelled, dose = 2.1 MBq): 107.29 % ID/g | Biodistribution, radioactivity concentration in Ic, Mean [6, 8]: 56.33 % ID/g | Biodistribution, radioactivity concentration in Ic, Mean [6, 9]: 52.72 % ID/g | Biodistribution, radioactivity concentration in Ic, Mean [6, 10]: 52.58 % ID/g | Biodistribution, radioactivity concentration in Ic, Mean [6, 11]: 2.30 % ID/g | Biodistribution, radioactivity concentration in Sc, Mean [6, 8]: 11.25 % ID/g | Biodistribution, radioactivity concentration in Sc, Mean [6, 9]: 14.52 % ID/g | Biodistribution, radioactivity concentration in Sc, Mean [6, 10]: 16.09 % ID/g | Biodistribution, radioactivity concentration in Sc, Mean [6, 11]: 2.95 % ID/g | tumour concentration, times higher than with BZA ([6]; at 72 hours (FIG. 1B)): 8 times | Biodistribution, radioactivity concentration in blood, Mean [6, 8]: 3.92 % ID/g | Biodistribution, radioactivity concentration in blood, Mean [6, 9]: 1.39 % ID/g | Biodistribution, radioactivity concentration in brain, Mean [6, 8]: 1.79 % ID/g | Biodistribution, radioactivity concentration in brain, Mean [6, 9]: 0.44 % ID/g | tumour concentration, % of the injected dose per gram of tumour ([6]; from the first hour): 21 % ID/g | Biodistribution, radioactivity concentration in kidney, Mean [6, 8]: 9.45 % ID/g | Biodistribution, radioactivity concentration in kidney, Mean [6, 9]: 3.42 % ID/g | Biodistribution, radioactivity concentration in kidney, Mean [6, 10]: 1.55 % ID/g | Biodistribution, radioactivity concentration in liver, Mean [6, 8]: 10.94 % ID/g | Biodistribution, radioactivity concentration in liver, Mean [6, 9]: 5.83 % ID/g | Biodistribution, radioactivity concentration in liver, Mean [6, 10]: 4.04 % ID/g | Biodistribution, radioactivity concentration in liver, Mean [6, 11]: 1.44 % ID/g | Biodistribution, radioactivity concentration in lungs, Mean [6, 8]: 8.77 % ID/g | Biodistribution, radioactivity concentration in lungs, Mean [6, 9]: 2.84 % ID/g | Biodistribution, radioactivity concentration in lungs, Mean [6, 10]: 1.40 % ID/g | Biodistribution, radioactivity concentration in muscle, Mean [6, 8]: 1.27 % ID/g | Biodistribution, radioactivity concentration in muscle, Mean [6, 9]: 0.45 % ID/g | Biodistribution, radioactivity concentration in muscle, Mean [6, 10]: 0.42 % ID/g | Biodistribution, radioactivity concentration in pancreas, Mean [6, 8]: 6.63 % ID/g | Biodistribution, radioactivity concentration in pancreas, Mean [6, 9]: 1.53 % ID/g | Biodistribution, radioactivity concentration in spleen, Mean [6, 8]: 14.02 % ID/g | Biodistribution, radioactivity concentration in spleen, Mean [6, 9]: 13.84 % ID/g | Biodistribution, radioactivity concentration in spleen, Mean [6, 10]: 18.88 % ID/g | Biodistribution, radioactivity concentration in thyroid, Mean [6, 9]: 8.63 % ID/g | Biodistribution, radioactivity concentration in thyroid, Mean [6, 10]: 54.71 % ID/g | Biodistribution, radioactivity concentration in thyroid, Mean [6, 11]: 214.42 % ID/g | Biodistribution, radioactivity concentration in thyroid, Mean [6, 12]: 12.74 % ID/g | Biodistribution, radioactivity concentration in uvea, Mean [6, 8]: 14.19 % ID/g | Biodistribution, radioactivity concentration in uvea, Mean [6, 9]: 17.49 % ID/g | Biodistribution, radioactivity concentration in uvea, Mean [6, 10]: 14.74 % ID/g | Biodistribution, radioactivity concentration in uvea, Mean [6, 11]: 11.64 % ID/g | Biodistribution, radioactivity concentration in uvea, Mean [6, 12]: 11.19 % ID/g
Compound: CCN(CC)CCNC(=O)c1cccc2nc3cc(I)ccc3nc12 [compound 151, N-(2-diethylaminoethyl)-7-iodophenazine-1-carboxamide dihydrochloride]
IC50 [1]: 3.6 µM | IC50 [4]: 2.7 µM | IC50 ([5]; read-out: IC50 B16, B16 F0 murine melanoma, 48 hours incubation, Hoechst test): 3.6 µM | cytotoxic activity compared with DACA (in words) ([5]; various cell lines studied (B16 F0, M4Beu, fibroblasts)): activities similar to that of DACA | inhibition at 2 µM ([7]; Mus musculus, B16F0, cold compound, 2 μM, colony forming, 48 hours contact, read-out: % of inhibition (Chemotherapeutic effects alone)): 21% | inhibition at 4 µM ([7]; Mus musculus, B16F0, cold compound, 4 μM, colony forming, 48 hours contact, read-out: % of inhibition (Chemotherapeutic effects alone)): 74% | inhibition at 6 µM ([7]; Mus musculus, B16F0, cold compound, 6 μM, colony forming, 48 hours contact, read-out: % of inhibition (Chemotherapeutic effects alone)): 87% | inhibition at 8 µM ([7]; Mus musculus, B16F0, cold compound, 8 μM, colony forming, 48 hours contact, read-out: % of inhibition (Chemotherapeutic effects alone)): 97% | inhibition at 10 µM ([7]; Mus musculus, B16F0, cold compound, 10 μM, colony forming, 48 hours contact, read-out: % of inhibition (Chemotherapeutic effects alone)): 100% | Cumulative effect (% inhib) (Radiotherapeutic and chemotherapeutic effects) ([7]; cold compound 151 at 2 μM with 0 activity of [125I]-151): 19%
